Read-outs that look alike come from different tables or passages of the source.
Key:
[1] = molecular target: BACE 1 (Beta Secretase enzyme) (Homo sapiens (Human), UniProt P56817); test: In vitro enzymatic BACE FRET assay; assay type: biochemical; conditions: average IC50; enzyme 0.2 nM, FRET substrate 50 nM, pH 4.2; read-out: BACE 1 FRET assay
Method: In Vitro Enzymatic BACE FRET (Fluorescence Resonance Energy Transfer) Assay (Enzyme Assay Data in the Example Table I)
The assay buffer used in this screen is 0.05 M acetate, pH 4.2, 10% DMSO final, 100 uM genapol (which is a nonionic detergent, below its Critical Micelle Concentration). […] This assay is effectively started by the addition of FRET substrate (50 nM) and the combination is incubated for one hour. The FRET assay is terminated with by addition of Tris buffer, which raises the pH to neutrality, and the fluorescence is determined. The FRET substrate is a peptide with commercially available fluorophore and quencher, on opposite sides of the BACE cleavage site. Proteolytic cleavage of the FRET substrate releases quenching of fluorescence (excitation […] and […]).

[2] = tested on: Aβ40 in conditioned medium of cells expressing amyloid precursor protein; test: In vitro BACE cell-based assay (HEK cell assay), Aβ40 sandwich ELISA; conditions: average IC50, Aβ40 in supernatant after 24 h incubation, read-out: HEK cell assay
Method: In Vitro BACE Cell-Based Assay
The cell-based assay measures inhibition or reduction of Aβ40 in conditioned medium of test compound treated cells expressing amyloid precursor protein.
Cells stably expressing Amyloid Precursor Protein (APP) were plated at a density of 40K cells/well in 96 well plates (Costar). The cells were cultivated for 24 hours at 37° C. and 5% CO2 in DMEM supplemented with 10% FBS. The test compounds were then added to cells in 10-point dose response concentrations with the starting concentration being either 100 μM or 10 μM. The compounds were diluted from stock solutions in DMSO and the final DMSO concentration of the test compounds on cells was 0.1%. After 24 h of incubation with the test compounds the supernatant conditioned media was collected and the Aβ 40 levels were determined using a sandwich ELISA. The IC50 of the compound was calculated from the percent of control or percent inhibition of Aβ 40 as a function of the concentration of the test compound.
The sandwich ELISA to detect Aβ 40 was performed in 96 well microtiter plates, which were pre-treated with goat anti-rabbit IgG (Pierce). The capture and detecting antibody pair that were used to detect Aβ 40 from cell supernatants were affinity purified pAb40 (Biosource) and biotinylated 6E10 (Signet Labs Inc.), respectively. The optimal concentration for the pAb40 antibody was 3 μg/ml in Superblock/TBS (Pierce) that was supplemented with 0.05% Tween 20 (Sigma).
Cellular supernatants were incubated with the capture antibody for 3 h at 4° C., followed by 3 wash steps in TBS-tween (0.05%). The detecting antibody incubation was for 2 h at 4° C., again followed by the wash steps as described previously. The final readout of the ELISA is Time-Resolved Fluorescence (counts per minute) using Delfia reagents Streptavidin-Europium and Enhancement solutions (Perkin Elmer) and the Victor 2 multilabel counter (Perkin Elmer).

[3] = molecular target: Cathepsin D (Cat D) (Homo sapiens (Human), UniProt P07339); test: In vitro enzymatic Cathepsin D (Cat D) FRET assay; assay type: biochemical; conditions: Cat D enzyme 9 nM, FRET substrate 20 nM, pH 3.5
Method: In Vitro Enzymatic Cathepsin D (Cat D) FRET (Fluorescence Resonance Energy Transfer) Assay
Recombinant Cat D was expressed in CHO cells. The assay buffer for CathepsinD is 0.05 M citrate pH 3.5, 10% DMSO final, 5 mM CHAPS. The Cat D enzyme (9 nM) is pre-incubated for one hour with inhibitors, typically in about luL of DMSO according to a serial dilution, is added thereto. The assays are effectively started by the addition of different FRET substrates (20 nM for Cat D) and the combination is incubated for one hour. The FRET assay is terminated with by addition of Tris buffer, which raises the pH to neutrality, and the fluorescence is determined. The FRET substrate is a peptide with commercially available fluorophore and quencher, on opposite sides of the BACE cleavage site. The Cat D substrate peptide sequence is based on sequence #1 of Table 1 from Gulnik et al. FEB S Letters v413 p 379-384 1997. Proteolytic cleavage of the FRET substrate releases quenching of fluorescence (Cat D excitation 500 nm and emission 580 nm).
Where available, the in-vitro Cat D FRET assay data for each of the Examples, conducted by the first procedure, is provided.

[4] = tested on: Aβ in lumbar CSF; conditions: cited from earlier work
[5] = tested on: pigment epithelium of the rat's eye; conditions: higher compound dose given for three months; cited from earlier work
[6] = tested on: Aβ; conditions: orally available; cited from earlier work

Sequence of BACE 1 (Beta Secretase enzyme) (P56817 46-501): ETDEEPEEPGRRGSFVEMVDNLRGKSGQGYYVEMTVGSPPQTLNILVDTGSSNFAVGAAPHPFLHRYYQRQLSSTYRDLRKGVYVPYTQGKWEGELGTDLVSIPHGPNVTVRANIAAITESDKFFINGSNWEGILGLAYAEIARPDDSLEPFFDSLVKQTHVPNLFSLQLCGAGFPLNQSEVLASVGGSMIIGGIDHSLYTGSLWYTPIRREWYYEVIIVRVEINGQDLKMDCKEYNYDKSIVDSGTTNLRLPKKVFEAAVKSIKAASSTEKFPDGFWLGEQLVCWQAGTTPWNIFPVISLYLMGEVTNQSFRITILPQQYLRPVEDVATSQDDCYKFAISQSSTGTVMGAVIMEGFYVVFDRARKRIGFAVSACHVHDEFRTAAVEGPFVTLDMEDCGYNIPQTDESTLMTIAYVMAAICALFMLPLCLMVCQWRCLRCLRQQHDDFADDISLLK
Sequence of Cathepsin D (Cat D) (P07339 65-412, species assumed): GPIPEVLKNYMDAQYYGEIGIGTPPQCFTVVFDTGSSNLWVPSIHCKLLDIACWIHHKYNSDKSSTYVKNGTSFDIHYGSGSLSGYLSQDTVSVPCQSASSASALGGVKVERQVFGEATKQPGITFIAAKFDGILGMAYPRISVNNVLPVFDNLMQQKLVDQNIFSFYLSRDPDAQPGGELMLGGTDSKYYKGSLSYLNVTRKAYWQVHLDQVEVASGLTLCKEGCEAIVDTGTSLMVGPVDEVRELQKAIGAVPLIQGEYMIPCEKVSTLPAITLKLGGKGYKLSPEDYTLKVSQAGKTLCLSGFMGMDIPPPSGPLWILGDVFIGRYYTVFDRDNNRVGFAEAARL

Row | Compound | IC50 [1] | IC50 ([2]; Homo sapiens, HEK293, 24 h) | also measured
1 | CN1C(=O)C[C@]2(N=C1N)c1cc(-c3cccnc3F)ccc1Oc1cnc(C3=CCOCC3)cc12 [Example 22, (S)-2′-amino-3-(3,6-dihydro-2H-pyran-4-yl)-7-(2-fluoropyridin-3-yl)-1′-methyl-1′H-spiro[chromeno[2,3-c]pyridine-5,4′-pyrimidin]-6′(5′H)-one] | 9.3 nM | 59.8 nM | –
2 | CN1C(=O)C[C@@]2(N=C1N)c1cc(-c3cccnc3F)ccc1Oc1cnc(C3=CCOCC3)cc12 [Example 23, (R)-2′-amino-3-(3,6-dihydro-2H-pyran-4-yl)-7-(2-fluoropyridin-3-yl)-1′-methyl-1′H-spiro[chromeno[2,3-c]pyridine-5,4′-pyrimidin]-6′(5′H)-one] | 1750 nM | 1680 nM | –
3 | CN1C(=O)C[C@]2(N=C1N)c1cc(-c3cccnc3F)ccc1Oc1cnc(C3=CCCOC3)cc12 [Example 24, (S)-2′-amino-3-(5,6-dihydro-2H-pyran-3-yl)-7-(2-fluoropyridin-3-yl)-1′-methyl-1′H-spiro[chromeno[2,3-c]pyridine-5,4′-pyrimidin]-6′(5′H)-one] | 12.1 nM | 52.3 nM | –
4 | CN1C(=O)C[C@@]2(N=C1N)c1cc(-c3cccnc3F)ccc1Oc1cnc(C3=CCCOC3)cc12 [Example 25, (R)-2′-amino-3-(5,6-dihydro-2H-pyran-3-yl)-7-(2-fluoropyridin-3-yl)-1′-methyl-1′H-spiro[chromeno[2,3-c]pyridine-5,4′-pyrimidin]-6′(5′H)-one] | 2430 nM | 6170 nM | –
5 | CN1C(=O)C[C@]2(N=C1N)c1cc(-c3cccnc3F)ccc1Oc1c2cc(C2=CC(C)(C)OCC2)nc1F [Example 26, (S)-2′-amino-3-(6,6-dimethyl-3,6-dihydro-2H-pyran-4-yl)-1-fluoro-7-(2-fluoropyridin-3-yl)-1′-methyl-1′H-spiro[chromeno[2,3-c]pyridine-5,4′-pyrimidin]-6′(5′H)-one] | 0.6 nM | 5 nM | –
6 | CN1C(=O)C[C@]2(N=C1N)c1cc(-c3cccnc3F)ccc1Oc1c2cc(C2=CCOC(C)(C)C2)nc1F [Example 27, (S)-2′-amino-3-(2,2-dimethyl-3,6-dihydro-2H-pyran-4-yl)-1-fluoro-7-(2-fluoropyridin-3-yl)-1′-methyl-1′H-spiro[chromeno[2,3-c]pyridine-5,4′-pyrimidin]-6′(5′H)-one] | 0.7 nM | 5 nM | –
7 | CN1C(=O)C[C@]2(N=C1N)c1cc(-c3cccnc3F)ccc1Oc1c2cc(C2CCOC(C)(C)C2)nc1F (stereo partly drawn) [Example 28, (4′S)-2′-amino-3-(2,2-dimethyltetrahydro-2H-pyran-4-yl)-1-fluoro-7-(2-fluoropyridin-3-yl)-1′-methyl-1′H-spiro[chromeno[2,3-c]pyridine-5,4′-pyrimidin]-6′(5′H)-one] | 2 nM | 2.2 nM | –
8 | CC#Cc1cncc(-c2ccc3c(c2)[C@@]2(N=C(N)N(C)C2=O)c2cc(C4=CCOCC4)cc(F)c2O3)c1 [Example 31, (4R)-2-amino-2′-(3,6-dihydro-2H-pyran-4-yl)-4′-fluoro-1-methyl-7′-(5-(1-propyn-1-yl)-3-pyridinyl)spiro[imidazole-4,9′-xanthen]-5(1H)-one] | 179 nM | 4410 nM | –
9 | C[C@@]1(c2cc(-c3cncnc3)c(F)cc2F)CCSC(N)=N1 [LY2811376, (S)-4-(2,4-difluoro-5-pyrimidin-5-yl-phenyl)-4-methyl-5,6-dihydro-4H-[1,3]thiazin-2-ylamine] | – | – | Aβ reductions in lumbar CSF ([4]; after oral dosing of 30 or 90 mg): Prominent and long-lasting Aβ reductions; safety and tolerability ([4]; healthy volunteers): safe and well tolerated; retinal toxicity finding [5]: ravaged the pigment epithelium of the rat's eye; Aβ-lowering effects in animals [6]: profound Aβ-lowering effects

Second part, led by results:

Row | IC50 [1] | IC50 ([2]; Homo sapiens, HEK293, 24 h) | Compound | also measured
10 | 0.5 nM | – | CC#Cc1cncc(-c2ccc3c(c2)[C@]2(N=C(N)N(C)C2=O)c2cc(C4=CCOCC4)cc(F)c2O3)c1 [Example 32, (4S)-2-amino-2′-(3,6-dihydro-2H-pyran-4-yl)-4′-fluoro-1-methyl-7′-(5-(1-propyn-1-yl)-3-pyridinyl)spiro[imidazole-4,9′-xanthen]-5(1H)-one] | IC50 [2]: 7.6 nM
11 | 0.3 nM | 9.9 nM | CN1C(=O)[C@]2(N=C1N)c1cc(-c3cccc(Cl)c3)ccc1Oc1c(F)cc(C3=CCOCC3)cc12 [Example 34, (4S)-2-amino-7′-(3-chlorophenyl)-2′-(3,6-dihydro-2H-pyran-4-yl)-4′-fluoro-1-methylspiro[imidazole-4,9′-xanthen]-5(1H)-one] | –
12 | 24.3 nM | 1820 nM | CN1C(=O)[C@@]2(N=C1N)c1cc(-c3cccc(Cl)c3)ccc1Oc1c(F)cc(C3=CCOCC3)cc12 [Example 35, (4R)-2-amino-7′-(3-chlorophenyl)-2′-(3,6-dihydro-2H-pyran-4-yl)-4′-fluoro-1-methylspiro[imidazole-4,9′-xanthen]-5(1H)-one] | –
13 | 225 nM | – | Cc1ccc(-c2cc(F)c3c(c2)[C@]2(N=C(N)N(C)C2=O)c2cc(-c4cccc(Cl)c4)ccc2O3)cc1 [Example 36, (4R)-2-amino-7′-(3-chlorophenyl)-4′-fluoro-1-methyl-2′-(4-methylphenyl)spiro[imidazole-4,9′-xanthen]-5(1H)-one] | IC50 [2]: > 10000 nM
14 | 2.9 nM | 147 nM | Cc1ccc(-c2cc(F)c3c(c2)[C@@]2(N=C(N)N(C)C2=O)c2cc(-c4cccc(Cl)c4)ccc2O3)cc1 [Example 37, (4S)-2-amino-7′-(3-chlorophenyl)-4′-fluoro-1-methyl-2′-(4-methylphenyl)spiro[imidazole-4,9′-xanthen]-5(1H)-one] | –
15 | 6.7 nM | 39 nM | COc1ccc2c(c1)C1(N=C(N)N(C)C1=O)c1cc(NC(=O)c3ccc(Cl)cn3)ccc1O2 (stereo not drawn) [Example 40, N-(2-amino-2′-methoxy-1-methyl-5-oxo-1,5-dihydrospiro[imidazole-4,9′-xanthen]-7′-yl)-5-chloropicolinamide] | IC50 [3]: 7400 nM

From patent US8957083B2, “Spiro-amino-imidazolone and spiro-amino-dihydro-pyrimidinone compounds as beta-secretase modulators and methods of use” (Amgen Inc., priority 2010, dated 2015)
